Structures can show the parent of a compound that is named as a salt.
Legend:
[1] = Stability assessment by HPLC after storage; assay type: physicochemical; settings: for HPLC analysis result, Open ACC: open state, accelerated condition (40° C., 75% RH); for HPLC analysis result, Open ACC / HPLC analysis result, Closed STR: in % (unit assumed); for HPLC analysis result, Closed STR: sealed state, harsh condition, oven at 80° C.
Experimental: About 10-30 mg of the sample was stored for 4 weeks in an open state under the accelerated condition (40° C., 75% RH) or in a sealed state under the harsh condition in an oven at 80° C.

[2] = Thermogravimetric analysis (TGA); assay type: physicochemical; settings: heated from 30° C. to 350° C. at 10° C./min; no weight loss in the DSC endothermic section
Experimental: The TGA was measured using Mettler Toledo TGA/DSC 1 module. About 4-8 mg of the sample is weighed and put into a 100 μL Al crucible (flat-bottomed aluminum crucibles). Then, TGA measurement is performed while the sample is heated from 30° C. to 350° C. at a rate of 10° C./min. During the measurement, nitrogen gas is supplied to the inside of the instrument at a rate of 80 mL/min to prevent the inflow of oxygen and other gases. Data collection and evaluation were performed using the software STARe.

- chemical stability to heat and humidity ([1]; 4 weeks under the accelerated condition (40° C., 75% RH) and the harsh condition (80° C.)): showed chemical stability for 4 weeks
- HPLC analysis result, Open ACC ([1]; Week 2): 97.67
- HPLC analysis result, Closed STR ([1]; Week 2): 97.73
- HPLC analysis result, Open ACC ([1]; Week 4): 97.82
- HPLC analysis result, Closed STR ([1]; Week 4): 97.94
- HPLC analysis result, Initial ([1]; initial, before storage): 97.7%
- thermal stability [2]: thermally stable crystalline form
Structure (SMILES): CC(C)C(=O)N([C@H]1C[C@@H](C(=O)N2CCOCC2)N(C(=O)[C@@H]2CN(C(C)(C)C)C[C@H]2c2ccc(Cl)cc2)C1)[C@H]1CC[C@@H](C)CC1 [Example 1, N-((3S,5S)-1-((3S,4R)-1-(tert-butyl)-4-(4-chlorophenyl)pyrrolidine-3-carbonyl)-5-(morpholine-4-carbonyl)pyrrolidin-3-yl)-N-((1s,4R)-4-methylcyclohexyl) isobutyramide hydrochloride]

From patent US20230399321A1, “CRYSTALLINE FORM II OF MELANOCORTIN RECEPTOR AGONIST COMPOUND AND PREPARATION METHOD THEREFOR” (LG CHEM, LTD., priority 2020, published 2023)
